Measured values from patent publication US7091199B1, “Thienoisoxazole phenoxy unsubstituted ethyl and propyl derivatives useful as d4 antagonists” (Aventis Pharmaceuticals Inc., priority 1999, dated 2006).
Structures can show the parent of a compound that is named as a salt. Where two headings read alike, the source gives them in different places.

Biological target: T1, human D4 receptor (D4.2 sub-type) (Homo sapiens, UniProt P21917, DEL271-302)
T1 sequence (P21917 with tags, fused parts or gaps DEL271-302): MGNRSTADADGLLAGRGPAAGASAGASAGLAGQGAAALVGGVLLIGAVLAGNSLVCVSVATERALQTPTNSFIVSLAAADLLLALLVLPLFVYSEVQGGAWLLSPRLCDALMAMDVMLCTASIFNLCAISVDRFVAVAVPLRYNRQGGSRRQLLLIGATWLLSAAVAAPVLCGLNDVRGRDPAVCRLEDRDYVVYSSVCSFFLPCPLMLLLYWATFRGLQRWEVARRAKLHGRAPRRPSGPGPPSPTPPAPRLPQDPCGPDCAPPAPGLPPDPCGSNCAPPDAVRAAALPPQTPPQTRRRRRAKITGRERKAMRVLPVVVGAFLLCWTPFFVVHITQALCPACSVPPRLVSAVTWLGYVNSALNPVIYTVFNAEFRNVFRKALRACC
Assay: D4 receptor binding assay (3H-spiperone displacement)
Details: for Ki: 3H-spiperone 0.25 nM, HEK cell membranes, human D4.2, read-out: D4 RBA Ki; for inhibition at 1 µM: read-out: D4 RBA % Inhibition (@ 1 μM)
Protocol: D4 receptor-binding affinities of the compounds were evaluated according to their ability to reduce binding of ^3H-spiperone as compared to the reference compound clozapine. The potency of the test compound to reduce ^3H-spiperone binding directly correlated to its binding affinity for the receptor.
[…] (human embryonic kidney) cells stably transfected with human D4 receptor (D4.2 sub-type) were grown in NUNC cell factories for 5 days (75% confluency) without a media change and removed with versene (approximately 19 mg of cells per cell factory tray). The cells were then centrifuged in a Sorval centrifuge for 10 min, 5000 rpm (GS3 rotor) and the pellets quickly frozen in liquid nitrogen and stored at −80° C. until used in binding assay. When used in the assay, cells were thawed on ice for 20 min and then 10 mL of incubation buffer (50 mM Tris, 1 mM EDTA, 4 mM MgCl2, 5 mM KCl, 1.5 mM CaCl2, 120 mM NaCl, pH 7.4) was added. The cells were then vortexed to resuspend pellet and homogenized with a Kinematica, CH-6010 Kriens-LU, homogenizer for 15 seconds at setting 7. Concentration of receptor protein was determined using the Pierce BCA assay.
The incubation was started by the addition of 100 μl (50 μg protein) membrane homogenate to a solution of 300 μl incubation buffer and 100 μl (0.25 nM final conc.) ^3H-spiperone (90 Ci/mmol, Amersham, diluted in borosilicate glass vial) in 96-well polypropylene plates (1 mL per well). The plates were vortexed and incubated at room temperature for 90 minutes. The binding reaction was stopped by filtering using a Packard Harvester. The samples were filtered under vacuum over glass fibre filter plates (Whatman GF/B) presoaked for 2 hours in 0.3% polyethylenimine (PEI) in 50 mM Tris buffer (pH 7.4). The filters were then washed 6 times with 7 mL ice cold 50 mM Tris buffer (pH 7.4). The filter plates were dried overnight and 35 μl of Microscint-O (Packard) was added. The plates were sealed and counted in the Packard Top Count (3 minutes per well).
The incubation was started by the addition of 100 μl (50 μg protein) membrane homogenate to a solution of 200 μl incubation buffer, 100 μl ^3H-spiperone (90 Ci/mmol, Amersham, diluted in borosilicate glass vial to 0.25 nM final conc.) and 100 μl (30 μM final conc.) of fresh dopamine (Research Biochemicals Inc., light protected and dissolved in incubation buffer) in 96-well polypropylene plates (1 mL per well). The plates were vortexed and incubated at room temperature for 90 minutes at which time the binding reaction was stopped by filtering. The filters were washed and counted using the same procedure as in the total binding assay described above to give the non-specific binding value (NSB).
The incubation was started by the addition, in 96-well polypropylene plates (1 mL per well), of 100 μl (50 μg protein) membrane homogenate to a solution of 200 μl incubation buffer, 100 μl (0.25 nM final conc.) ^3H-spiperone (90 Ci/mmol, Amersham, diluted in borosilicate glass vial) and 100 μl of test compound that was prepared from 1 mM stock dissolved in DMSO and stored at −20° C. in polypropylene cryogenic storage vials until dilution in incubation buffer in 96-well polypropylene plates. The plates were vortexed and incubated at room temperature for 90 minutes at which time the binding reaction was stopped by filtering. The filters were washed and counted using the same procedure as in the total binding assay described above to give the displacement binding value (BD).
The test compounds were initially assayed at 1 and 0.1 μM and then at a range of concentrations chosen such that the middle dose would cause about 50% inhibition of ^3H-spiperone binding. Specific binding in the absence of test compound (B0) was the difference of total binding (BT) minus non-specific binding (NSB) and similarly specific binding (in the presence of test compound) (B) was the difference of displacement binding (BD) minus non-specific binding (NSB). […]

[1] = @ 1 μM test compound, 3H-spiperone binding

SMILES	Ki [nM]	inhibition at 1 µM [1] [%]	other results
Fc1ccccc1CNCCCOc1cccc(-c2noc3ccsc23)c1 [Compound 2, (2-fluoro-benzyl)-[3-(3-thieno[2,3-d]isoxazol-3-yl-phenoxy)-propyl]-amine]	62	–	–
Clc1ccc(CNCCCOc2cccc(-c3noc4ccsc34)c2)cc1 [Compound 4, (4-chloro-benzyl)-[3-(3-thieno[2,3-d]isoxazol-3-yl-phenoxy)-propyl]-amine]	45	–	–
COc1ccc(CNCCCOc2cccc(-c3noc4ccsc34)c2)cc1 [Compound 5, (4-methoxy-benzyl)-[3-(3-thieno[2,3-d]isoxazol-3-yl-phenoxy)-propyl]-amine]	92	–	–
c1cc(OCCCNCc2cccs2)cc(-c2noc3ccsc23)c1 [Compound 6, [3-(3-thieno[2,3-d]isoxazol-3-yl-phenoxy)-propyl]-thiophen-2-ylmethylamine]	27	–	–
c1cncc(CNCCCOc2cccc(-c3noc4ccsc34)c2)c1 [Compound 8, pyridin-3-ylmethyl-[3-(3-thieno[2,3-d]isoxazol-3-yl-phenoxy)-propyl]-amine]	76	–	–
OC(CNCCCOc1cccc(-c2noc3ccsc23)c1)c1ccccc1 (stereo not shown) [Compound 9, 1-phenyl-2-[3-(3-thieno[2,3-d]isoxazol-3-yl-phenoxy)-propylamino]-ethanol]	–	73	–
c1ccc(N2CCN(CCCOc3cccc(-c4noc5ccsc45)c3)CC2)cc1 [Compound 10, 3-{3-[3-(4-phenyl-piperazin-1-yl)-propoxy]-phenyl}-thieno[2,3-d]isoxazole]	–	95	–
Fc1ccc(N2CCN(CCCOc3cccc(-c4noc5ccsc45)c3)CC2)cc1 [Compound 11, 3-(3-{3-[4-(4-fluoro-phenyl)-piperazin-1-yl]-propoxy}-phenyl)-thieno[2,3-d]isoxazole]	–	91	–
Fc1ccccc1N1CCN(CCCOc2cccc(-c3noc4ccsc34)c2)CC1 [Compound 12, 3-(3-{3-[4-(2-fluoro-phenyl)-piperazin-1-yl]-propoxy}-phenyl)-thieno[2,3-d]isoxazole]	–	94	–
NS(=O)(=O)c1ccc(CNCCCOc2cccc(-c3noc4ccsc34)c2)cc1 [Compound 14, 4-{[3-(3-thieno[2,3-d]isoxazol-3-yl-phenoxy)-propylamino]-methyl}-benzenesulfonamide]	–	60	–
NS(=O)(=O)c1ccc(CCNCCCOc2cccc(-c3noc4ccsc34)c2)cc1 [Compound 15, 4-{2-[3-(3-thieno[2,3-d]isoxazol-3-yl-phenoxy)-propylamino]-ethyl}-benzenesulfonamide]	–	65	–
c1ccc(CNCCOc2cccc(-c3noc4ccsc34)c2)cc1 [Compound 16, benzyl-[2-(3-thieno[2,3-d]isoxazol-3-yl-phenoxy)-ethyl]-amine]	7.6	–	–
COc1ccccc1CNCCOc1cccc(-c2noc3ccsc23)c1 [Compound 21, (2-methoxy-benzyl)-[2-(3-thieno[2,3-d]isoxazol-3-yl-phenoxy)-ethyl]-amine]	14.2	–	–
Clc1ccc(CNCCOc2cccc(-c3noc4ccsc34)c2)cc1Cl [Compound 22, (3,4-dichloro-benzyl)-[2-(3-thieno[2,3-d]isoxazol-3-yl-phenoxy)-ethyl]-amine]	–	99	–
c1cc(OCCNCc2cccs2)cc(-c2noc3ccsc23)c1 [Compound 24, [2-(3-thieno[2,3-d]isoxazol-3-yl-phenoxy)-ethyl]-thiophen-2-ylmethyl-amine]	–	95	–
c1cncc(CNCCOc2cccc(-c3noc4ccsc34)c2)c1 [Compound 25, pyridin-3-ylmethyl-[2-(3-thieno[2,3-d]isoxazol-3-yl-phenoxy)-ethyl]-amine]	–	93	–
c1ccc(N2CCN(CCOc3cccc(-c4noc5ccsc45)c3)CC2)cc1 [Compound 28, 3-{3-[2-(4-phenyl-piperazin-1-yl)-ethoxy]-phenyl}-thieno[2,3-d]isoxazole]	–	78	–
c1ccc(C2CCN(CCOc3cccc(-c4noc5ccsc45)c3)CC2)cc1 [Compound 30, 3-{3-[2-(4-phenyl-piperidin-1-yl)-ethoxy]-phenyl}-thieno[2,3-d]isoxazole hydrochloride]	–	–	inhibition at 1 µM: 68%

Continued, in another order:

Ki [nM]	inhibition at 1 µM [1] [%]	SMILES	other results
–	60	c1cc(OCCN2CCc3ccccc3C2)cc(-c2noc3ccsc23)c1 [Compound 29, 2-[2-(3-thieno[2,3-d]isoxazol-3-yl-phenoxy)-ethyl]-1,2,3,4-tetrahydroisoquinoline]	–
15	–	c1cc(OCCNCc2ccsc2)cc(-c2noc3ccsc23)c1 [Compound 33, [2-(3-thieno[2,3-d]isoxazol-3-yl-phenoxy)-ethyl]-thiophen-3-ylmethylamine hydrochloride]	–
–	93	Fc1ccccc1CNCCOc1cccc(-c2noc3ccsc23)c1 [Compound 34, (2-fluoro-benzyl)-[2-(3-thieno[2,3-d]isoxazol-3-yl-phenoxy)-ethyl]-amine]	–
–	88	Clc1ccccc1CNCCOc1cccc(-c2noc3ccsc23)c1 [Compound 35, (2-chloro-benzyl)-[2-(3-thieno[2,3-d]isoxazol-3-yl-phenoxy)-ethyl]-amine]	–
13	–	COc1cccc(CNCCOc2cccc(-c3noc4ccsc34)c2)c1 [Compound 36, (3-methoxy-benzyl)-[2-(3-thieno[2,3-d]isoxazol-3-yl-phenoxy)-ethyl]-amine]	–
32	–	Fc1ccc(CNCCOc2cccc(-c3noc4ccsc34)c2)cc1F [Compound 37, (3,4-difluoro-benzyl)-[2-(3-thieno[2,3-d]isoxazol-3-yl-phenoxy)-ethyl]-amine]	–
–	95	c1cc(OCCNC2CCc3ccccc32)cc(-c2noc3ccsc23)c1 (stereo not shown) [Compound 38, indan-1-yl-[2-(3-thieno[2,3-d]isoxazol-3-yl-phenoxy)-ethyl)-amine]	–
20	–	Cc1ccc(CNCCCOc2cccc(-c3noc4ccsc34)c2)cc1 [Compound 39, (4-methyl-benzyl)-[3-(3-thieno[2,3-d]isoxazol-3-yl-phenoxy)-propyl]-amine]	–
–	89	Clc1ccccc1CNCCCOc1cccc(-c2noc3ccsc23)c1 [Compound 40, (2-chloro-benzyl)-[3-(3-thieno[2,3-d]isoxazol-3-yl-phenoxy)-propyl]-amine]	–
44	–	COc1cccc(CNCCCOc2cccc(-c3noc4ccsc34)c2)c1 [Compound 41, (3-methoxy-benzyl)-[3-(3-thieno[2,3-d]isoxazol-3-yl-phenoxy)-propyl]-amine]	–
47	–	Fc1ccc(CNCCCOc2cccc(-c3noc4ccsc34)c2)cc1F [Compound 42, (3,4-difluoro-benzyl)-[3-(3-thieno[2,3-d]isoxazol-3-yl-phenoxy)-propyl]-amine]	–
–	94	c1cc(OCCCNC2CCc3ccccc32)cc(-c2noc3ccsc23)c1 (stereo not shown) [Compound 43]	–
–	96	c1cc(OCCCNC2Cc3ccccc3C2)cc(-c2noc3ccsc23)c1 [Compound 44, indan-2-yl-[3-(3-thieno[2,3-d]isoxazol-3-yl-phenoxy)-propyl]-amine]	–
